How the values were obtained:
Assay type in all cases: cell-based
MEIS1 gene expression [1] = assay: Inhibition of MEIS1 gene expression in human tumor cells (qRT-PCR), MV-4-11; settings: MV4-11, MV-4-11 (carrying MLL-AF4), 48 hours of incubation, relative MEIS1 gene expression vs GAPDH, read-out: MV-4-11 MEISI EC50
Source text: (§1) Experimental Example 3: Evaluation of Inhibitory Activity of Compounds Against MEISI Gene Expression in Human Tumor Cells
(§2) The effect of test samples on MEIS1 gene expression in vitro cultured human leukemia cells MV-4-11 (carrying MLL-AF4), MOLM-13 (carrying MLL-AF9), and OCI-AML3 (carrying NPM1c) was studied.
(§3) • Human acute lymphoblastic leukemia cells MV-4-11, purchased from American Type Culture Collection, Catalog Number: CRL-9591; • Human acute myeloid leukemia cells MOLM-13, purchased from COBIOER BIOSCIENCES CO., LTD, Catalog Number: CBP60678; • Human acute myeloid leukemia cells OCI-AML3, purchased from COBIOER BIOSCIENCES CO., LTD, Catalog Number: CBP60817; • MEIS1 Primer/Probe, purchased from IDT, Catalog Number: 40831613; and • GAPDH Primer/Probe, purchased from IDT, Catalog Number: 22214836.
(§4) MV-4-11 cells were cultured in an IMDM medium containing 10% fetal bovine serum, or MOLM-13 and OCI-AML3 cells were cultured in an RPMI-1640 medium containing 20% fetal bovine serum, each supplemented with 100 U·mL^-1 penicillin and 100 µg·mL^-1 streptomycin. These cells were cultured at 37°C with 5% CO2. The suspensions of individual cell lines were prepared in their respective media and seeded into 48-well plates at a density of 100,000 cells/well. On the day of the experiment, a compound stock solution was diluted in a 6-fold gradient using DMSO. Each gradient-diluted stock solution was then further diluted 250-fold with a complete medium to prepare a series of working solutions at different concentrations. Next, 250 µL of working solution (containing the complete medium with a 2-fold serial concentration of the test compound or a positive control compound, or containing a control complete medium) was added to each well. After 48 hours of incubation, cells from the 48-well plate were collected into 1 mL centrifuge tubes, centrifuged at 1000 rpm for 5 minutes, and the complete medium was removed. Cells were washed twice with 1 mL PBS and centrifuged to remove PBS. Total RNA was extracted using the RNeasy Mini Kit (250) (QIAGEN, 74106). The threshold cycle (Ct) value for gene expression was determined using the HiScript II U+ One Step qRT-PCR Probe Kit (Vazyme) (Vazyme, Q223-01), with 3 replicates per sample. The prepared reaction mixture was placed in an ABI 7500 real-time PCR instrument, and the reaction proceeded following the procedures below. [formula]
(§5) Next, for the relative MEIS1 gene expression, the concentration (EC50) that inhibits 50% of relative MEIS1 gene expression was calculated using GraphPad Prism 8 software.

[2] = system: MV-4-11 (carrying MLL-AF4); assay: Inhibition of proliferation of human tumor cells (Alamar Blue, 7 days), MV-4-11; settings: Homo sapiens, MV4-11, 168 h, MV-4-11 cells (carrying MLL-AF4), method calls the value GI50
In short: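 Cells seeded at 4,000/well (MV-4-11, MOLM-13) or 3,000/well (KG-1a), treated in duplicate with serial compound dilutions for 7 days at 37°C, 5% CO2. Alamar Blue fluorescence read on Day 7, normalised to 0.1% DMSO Day-7 (high) and Day-0 (low) controls; GI50 derived.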

MEIS1 gene expression [3] = assay: Inhibition of MEIS1 gene expression in human tumor cells (qRT-PCR), OCI-AML3; settings: OCI-AML-3, OCI-AML3 (carrying NPM1c), 48 hours of incubation, relative MEIS1 gene expression vs GAPDH
Source text: as §1, §2, §3, §4, §5

Row | EC50 (MEIS1 gene expression [1]) [nM] | IC50 [2] [nM] | EC50 (MEIS1 gene expression [3]) [nM] | Structure (SMILES)
1 | 6.5 | 1.6 | 12 | CCN1CCN(CCC[C@H](C(C)C)N2CC(c3cc(-c4ccc(F)cc4C(=O)N4CCOC[C@H]4C)c4c(F)nc(C)n4c3)C2)CC1 [Example 277]
2 | 12 | 3.2 | 13 | COCCN(C)CCC[C@H](C(C)C)N1CC(c2cc(-c3ccc(F)cc3C(=O)N3CCOC[C@H]3C)c3c(F)nc(C)n3c2)C1 [Example 200-1]
3 | 3.4 | 2.4 | 2.4 | COC1CCN(CCCC(C(C)C)N2CC(c3cc(-c4ccc(F)cc4C(=O)N4CCOCC4C)c4c(F)nc(C)n4c3)C2)C1 (stereo not drawn) [Example 201-1]
4 | 7.8 | 5 | 17 | Cc1nc(F)c2c(-c3ccc(F)cc3C(=O)N3CCOC[C@H]3C)cc(C3CN([C@H](CN4CCN(C)CC4)C(C)C)C3)cn12 [Example 368-2, (3R)-4-[5-fluoro-2-(1-fluoro-3-methyl-6-{1-[(2S)-3-methyl-1-(4-methylpiperazin-1-yl)butan-2-yl]azacyclobutan-3-yl}imidazo[1,5-a]pyridin-8-yl)benzoyl]-3-methylmorpholine]
5 | 2.4 | 0.4 | 7.5 | CCN(C(=O)c1cc(F)ccc1-c1cc(C2CN([C@H](CCCN3C[C@H]4C[C@@H]3CO4)C(C)C)C2)cn2c(C)ncc12)C(C)C [Example 379, N-ethyl-5-fluoro-2-(3-methyl-6-{1-[(3R)-2-methyl-6-[(1R,4R)-2-oxa-5-azabicyclo[2.2.1]heptan-5-yl]hexan-3-yl]azacyclobutan-3-yl}imidazo[1,5-a]pyridin-8-yl)-N-(isopropyl)benzamide]
6 | 54 | 8.6 | 70 | CC(=O)N1CCN(CCC[C@H](C(C)C)N2CC(c3cc(-c4ccc(F)cc4C(=O)N4CCOC[C@H]4C)c4c(F)nc(C)n4c3)C2)CC1 [Example 265]
7 | 1.9 | 1.1 | 13 | CCN(C(=O)c1cc(F)ccc1-c1cc(C2CN([C@H](CCCN3CCN(CCO)CC3)C(C)C)C2)cn2c(C)ncc12)C(C)C [Example 398, N-ethyl-5-fluoro-2-(6-{1-[(3R)-6-[4-(2-hydroxyethyl)piperazin-1-yl]-2-methylhexan-3-yl]azacyclobutan-3-yl}-3-methylimidazo[1,5-a]pyridin-8-yl)-N-(isopropyl)benzamide]
8 | 7.3 | 1.3 | 9.5 | CCN1CCN(CCC[C@H](C(C)C)N2CC(c3cc(-c4ccc(F)cc4C(=O)N4CCOC[C@H]4C)c4cnc(C)n4c3)C2)CC1 [Example 324-2]
9 | 19 | 17 | 33 | CC(=O)N1CCC([C@H](C)N2CC(c3cc(-c4ccc(F)cc4C(=O)N4CCOC[C@H]4C)c4c(F)nc(C)n4c3)C2)CC1 [Example 257-2, 1-{4-[(1S)-1-[3-(1-fluoro-8-{4-fluoro-2-[(3R)-3-methylmorpholin-4-carbonyl]phenyl}-3-methylimidazo[1,5-a]pyridin-6-yl)azacyclobutan-1-yl]ethyl]piperidin-1-yl}ethan-1-one]
10 | 5.5 | 4.7 | 33 | CCN(C(=O)c1cc(F)ccc1-c1cc(C2CN([C@H](CN3CCN(CCO)CC3)C(C)C)C2)cn2c(C)ncc12)C(C)C [Example 431, N-ethyl-5-fluoro-2-(6-{1-[(2S)-1-[4-(2-hydroxylethyl)piperazin-1-yl]-3-methylbutan-2-yl]azacyclobutan-3-yl}-3methylimidazo[1,5-a]pyridin-8-yl)-N-(isopropyl)benzamide]
11 | 19 | 4.7 | 23 | CCN(C(=O)c1cc(F)ccc1-c1cc(C2CN([C@H](CCCN3CCN(C(C)=O)CC3)C(C)C)C2)cn2c(C)ncc12)C(C)C [Example 311-2, 2-(6-{1-[(3R)-6-(4-acetylpiperazin-1-yl)-2-methylhexan-3-yl]azacyclobutan-3-yl}-3-methylimidazo[1,5-a]pyridin-8-yl)-N-ethyl-5-fluoro-N-(isopropyl)benzamide]
12 | 5 | 0.97 | 12 | CCN(C(=O)c1cc(F)ccc1-c1cc(C2CN([C@H](CCCN3CCN(C)CC3)C(C)C)C2)cn2c(C)ncc12)C(C)C [Example 310-2, N-ethyl-5-fluoro-2-(3-methyl-6-{1-[(3R)-2-methyl-6-(4-methylpiperazin-1-yl)hexan-3-yl]azacyclobutan-3-yl}imidazo[1,5-a]pyridin-8-yl)-N-(isopropyl)benzamide]
13 | 13 | 1.1 | 8.9 | Cc1nc(F)c2c(-c3ccc(F)cc3C(=O)N3CCOC[C@H]3C)cc(C3CN([C@H](CCCN4CCC(F)CC4)C(C)C)C3)cn12 [Example 314]
14 | 5.7 | 0.91 | 3.9 | CCN(C(=O)c1cc(F)ccc1-c1cc(C2CN([C@H](CCCN3CCN(C)CC3)C(C)C)C2)cn2c(C)nc(F)c12)C(C)C [Example 312-2]
15 | 32 | 12 | 34 | Cc1nc(F)c2c(-c3ccc(F)cc3C(=O)N3CCOC[C@H]3C)cc(C3CN([C@H](CO[C@@H]4CCCN(C)C4)C(C)C)C3)cn12 [Example 297-1, (3R)-4-[5-fluoro-2-(1-fluoro-3-methyl-6-{1-[(2S)-3-methyl-1-{[(3R)-1-methylpiperidin-3-yl]oxy}butan-2-yl]azacyclobutan-3-yl}imidazo[1,5-a]pyridin-8yl)benzoyl]-3-methylmorpholine]
16 | 15 | 2.8 | 13 | COC1CCN(CCC[C@H](C(C)C)N2CC(c3cc(-c4ccc(F)cc4C(=O)N4CCOC[C@H]4C)c4c(F)nc(C)n4c3)C2)CC1 [Example 204, (3R)-4-[5-fluoro-2-(1-fluoro-6-{1-[(3R)-6-(4-methoxypiperidin-1-yl)-2-methylhexan-3-yl]azacyclobutan-3-yl}-3-methylimidazo[1,5-a]pyridin-8-yl)benzoyl]-3-methylmorpholine]
17 | 23 | 2 | 31 | Cc1nc(F)c2c(-c3ccc(F)cc3C(=O)N3CCOC[C@H]3C)cc(C3CN([C@H](CCCN4CCC[C@H](O)C4)C(C)C)C3)cn12 [Example 293]
18 | 8.3 | 2.6 | 16 | Cc1nc(F)c2c(-c3ccc(F)cc3C(=O)N3CCOC[C@H]3C)cc(C3CN([C@H](CCCN4CCN(C)CC4)C(C)C)C3)cn12 [Example 275, (3R)-4-[5-fluoro-2-(1-fluoro-3-methyl-6-{1-[(3R)-2-methyl-6-(4-methylpiperazin-1-yl)hexan-3-yl]azacyclobutan-3-yl}imidazo[1,5-a]pyridin-8-yl)benzoyl]-3-methylmorpholine]

Row | Structure (SMILES) | EC50 (MEIS1 gene expression [1]) [nM] | IC50 [2] [nM] | EC50 (MEIS1 gene expression [3]) [nM]
19 | CCN(C(=O)c1cc(F)ccc1-c1cc(C2CN([C@H](CCCN3C4COCC3C4)C(C)C)C2)cn2c(C)ncc12)C(C)C [Example 423] | 1.3 | 1.2 | 6.1
